This is an account of results in a melting point compilation (Tetko et al.; mined from patent text by program, amines drawn as free bases though some values may be those of a salt).

In general, melting point refers to the temperature of the solid-liquid transition. For the compound `c1ccc(C(c2ccc3[nH]nnc3c2)n2cncn2)cc1` (stereo not drawn), the melting point amounted to 183 °C. Under `CCn1c(=O)c2[nH]c(/C=C/c3ccc(Br)cc3)nc2n(CC)c1=O` stands more than 270 °C.

The compound `CS(=O)(=O)c1cccc(NC(=O)c2cnn3c(C(F)(F)F)cc(-c4ccc(C(F)(F)F)c(OCC(F)(F)F)c4)nc23)c1` returned a melting point of 227 °C. In turn, `CNC(=O)OC1c2ccccc2C(=O)N1c1ccc2ccc(Cl)nc2n1` (stereo not drawn) registered a melting point of 260 °C. In turn, `COc1cc(N)c(S(C)(=O)=O)cc1C(=O)NCC1CCCN1C` (stereo not drawn) registered a melting point of 190 to 191 °C. Under `CCCCCCCCCCCCCCCCCC1CC(OC(=O)c2ccccc2)C(CC)C(=O)O1` (racemic) stands 64.5 to 66 °C; under `COC1(c2cccc(OCc3ccc4ccc(F)cc4c3)c2)CC(C)OC(C)C1` (stereo not drawn), 77 °C; under `COc1ccc(NS(=O)(=O)c2cc3cc(Cl)ccc3oc2=O)cc1O`, 225 to 226 °C. For `Cc1c(O)ccc2c1OCC1c3ccccc3OC21` (stereo not drawn) the value was 160 to 162 °C.

In turn, `O=C1OC(N2C(=O)NC(=O)C23C(=O)N(Cc2ccc(Cl)c(Cl)c2)c2ccccc23)c2ccccc21` (stereo not drawn) came in with a melting point of 154 to 158 °C. Under `CCCCCCCCCCCCCCCCCC(=O)N[C@@H](C)C(=O)OC` stands 84 °C; under `CCS(=O)(=O)c1ccc(I)cc1`, 78 to 79 °C. Take `COc1ccccc1OCC(O)CN1CCC(=O)CC1` (stereo not drawn): the melting point lay in the range of 77 to 78 °C. In turn, `C[C@@H](Nc1ncnc2cc(OCCO)c([N+](=O)[O-])cc12)c1ccccc1` came in with a melting point of 187 to 192 °C. `CCOC(=O)CCCCSc1nc(-c2ccccc2)c(-c2ccccc2)[nH]1` returned a melting point of 87 to 89 °C. For `CCOC(=O)CN(C(=O)C(F)(F)F)c1ccc(Cl)cc1C#N` the value was 71 to 73 °C.

With `COCOc1cc(OCOC)c(C(=O)C=Cc2cc(OC)c(OCOC)c(OC)c2)c(O)c1CC=C(C)C`, the melting point lay within 91.2 to 92 °C.

Regarding `CCOCCS(=O)(=O)c1c(Cl)nc(Cl)nc1Cl`, the melting point is 133 to 134 °C. Under `Cc1ccc(S(=O)(=O)N2CCCC2c2ccc(C)cc2C)cc1` (racemic) stands 130 °C. The compound `Cn1cc(C2=C(c3cn(CCCS(C)(=O)=O)c4ccccc34)C(=O)NC2=O)c2ccccc21` came in with a melting point of 225 to 227 °C. `Cn1c(CNCC(C)(C)O)cc2cc(NC(=O)c3ccc(OCC4CCOC4)cc3)ccc21` (stereo not drawn) yielded a melting point of 169 °C.

Consider `CN(C)n1c(=O)c2ccccc2n(C)c1=O`, for which the melting point was found to be 154 °C. In turn, `Cc1cccc2c(-c3ccccc3)onc12` yielded a melting point of 73 to 75 °C. The compound `CCSc1cc(C)nc(SCC)c1NC(=O)CN1CCN(CCSc2nc3cccc([N+](=O)[O-])c3o2)CC1` came in with a melting point of 50 to 52 °C. Under `O=C(O)c1ccc(N2C(=O)C(=Cc3ccccc3)SC2=S)cc1` stands 298 to 301 °C; under `COc1ccc(CC2SC(=O)NC2=O)c2c1N(Cc1ccc(NC(=O)c3ccc4ccccc4c3)cc1)C(=O)CC2` (stereo not drawn), 202 to 208 °C. `Cc1cc2c(cc1C(F)(F)F)N(Cc1ccc(C(=O)O)cc1)CCC[C@@H]2N(Cc1cc(C(F)(F)F)cc(C(F)(F)F)c1)c1nnn(C)n1` showed a melting point of 95 to 98 °C. For `CNc1nc2ccc(C3=NNC(=O)NC3C)cc2s1` (stereo not drawn) the value was 290 to 295 °C.

The compound `CN1CCN(c2nn(-c3ccc(Cl)cc3Cl)c3ccccc23)CC1` displayed a melting point of 150 to 152 °C. Under `CCOC(=O)c1cc(C)n(-c2cccc(N(C)C)c2)c1-c1ccccc1` stands 112 to 114 °C. For the compound `Cc1oc(-c2ccccc2)nc1COc1ccc(COc2ccc(O)cc2CC#N)cc1`, the melting point lay in the range of 185 to 186 °C. Under `COc1cc2ncc(C#N)c(Nc3ccc(C(N)=O)cc3)c2cc1OC` stands more than 250 °C; under `CCOC(=O)N1CCN(c2nc(N)ccc2[N+](=O)[O-])CC1`, 132 to 134 °C.
